This assay relates to HPV-positive TC-1 tumor cells. Put plainly: TC-1 tumor model, tumor growth and survival after single treatment. Format: in vivo, B6 mice. On the procedure: FIG. 1 provides a survival plot: B6 mice (n=4 per group) were implanted with 50,000 TC1 tumor cells subcutaneously. On day 10, group 2 received tumor vaccine R-DOTAP−HPV mix formulation (100 μl) (ASP3-250-HPV mix) containing HPV antigens (ASP3/R-DOTAP (S.C.) in the opposite flank of the tumor and group 3 mice received intra-tumoral injection of R-DOTAP (50 μl of 6 mg/ml) (RDOTAP (IT)).
Three groups of mice were injected on day 0 with 50,000 HPV-positive TC-1 tumor cells. In order for a stringent test of antitumor effect, the tumors were allowed to grow to a size of 6-7 mm prior to treatment on Day 10. The aggressively growing tumors reached a size of 10 mm by Day 14. Group 1 mice (Naïve) were left untreated and had to be sacrificed by Day 16. The mice in Group 2 (ASP3/R-DOTAP S.C.) were treated with one subcutaneous injection of R-DOTAP+HPV16(49-57) antigen injection on the opposite flank to the tumor. The mice in Group 3 (R-DOTAP IT) were treated with a single intra-tumoral injection of R-DOTAP only. The tumor sizes and survival of all 3 groups were monitored.
FIG. 1 provides a survival plot: B6 mice (n=4 per group) were implanted with 50,000 TC1 tumor cells subcutaneously.

The record followed here is US20220160867A1, “METHODS AND COMPOSITIONS COMPRISING CATIONIC LIPIDS FOR IMMUNOTHERAPY BY DIRECT TUMOR INJECTION” (PDS Biotechnology Corporation, priority 2020, published 2022).

Regarding `CCCCCCCC/C=C\CCCCCCCC(=O)OC[C@@H](C[N+](C)(C)C)OC(=O)CCCCCCC/C=C\CCCCCCCC` [R-DOTAP, (R)-1,2-dioleoyl-3-trimethylammonium propane], under “intra-tumoral R-DOTAP only, 50 μl of 6 mg/ml, no antigen, compared with sub-cutaneous R-DOTAP+antigen”, the “antitumor efficacy (survival plot, FIG. 1)” value was “comparable antitumor efficacy”. For the same molecule, where the note is “tumors 6-7 mm at single treatment on Day 10, data not shown”, the tumor growth rates result was “dramatic slowing of the tumor growth rates”.
